Results: US20030171218A1, “Substituted 3-heteroaryl(amino- or oxy)pyrrolidin-2-ones, their preparation and use as herbicides or plant growth regulators” (priority 2001, published 2003)

Legend:
[1] = tested on: weed plants such as Digitaria sanguinalis, Echinochloa crus-galli, Setaria faberi, Setaria viridis, Sorghum halepense, Abutilon theophrasti, Amaranthum …; experiment: Pre-emergence effect on weeds (greenhouse pot test); type: in vivo, monocotyledonous and dicotyledonous weed plants; conditions: application rate of 1 kg or less of active substance per hectare; scored visually after 3 to 4 weeks by comparison with untreated controls
Description: Seeds or rhizome pieces of monocotyledonous and dicotyledonous weed plants are placed in sandy loam soil in plastic pots and covered with soil. The compounds according to the invention which are formulated in the form of wettable powders or emulsion concentrates are then applied to the surface of the soil cover in the form of aqueous suspensions or emulsions at an application rate of 600 to 800 l of water/ha (converted), in various dosages.
After the treatment, the pots are placed in a greenhouse and kept under good growth conditions for the weeds. After the test plants have emerged, the damage to the plants or the negative effect on the emergence is scored visually after a test period of 3 to 4 weeks by comparison with untreated controls. As shown by the test results, compounds according to the invention have good herbicidal pre-emergence activity against a broad spectrum of weed grasses and broad-leafed weeds.

[2] = tested on: harmful plants such as Digitaria sanguinalis, Echinochloa crus-galli, Setaria faberi, Setaria viridis, Sorghum halepense, Abutilon theophrasti, Amaranthum …; experiment: Post-emergence effect on weeds (greenhouse pot test); type: in vivo, monocotyledonous and dicotyledonous weeds; conditions: application rate of 1 kg and less of active substance per hectare; treated at three-leaf stage; scored visually after about 3 to 4 weeks by comparison with untreated controls
Method: Seeds or rhizome pieces of monocotyledonous and dicotyledonous weeds are placed in sandy loam soil in plastic pots, covered with soil and grown in a greenhouse under good growth conditions. Three weeks after sowing, the test plants are treated at the three-leaf stage. The compounds according to the invention which were formulated as wettable powders or emulsion concentrates are sprayed, at various dosages, onto the green parts of the plants at an application rate of 600 to 800 l of water/ha (converted). After the test plants have remained in the greenhouse for about 3 to 4 weeks under optimum growth conditions, the effect of the preparations is scored visually by comparison with untreated controls. The agents according to the invention also have good herbicidal activity post-emergence against a broad spectrum of economically important weed grasses and broad-leafed weeds.

| SMILES | herbicidal activity pre-emergence [1] | herbicidal activity post-emergence [2] |
| --- | --- | --- |
| Cc1nc(N)nc(NC2CCN(c3cccc(F)c3)C2=O)n1 (centres unmarked) [Example A1] | very good herbicidal activity | very good herbicidal activity |
| Cc1nc(N)nc(NC2CCN(c3ccccc3)C2=O)n1 (centres unmarked) [Example A2] | very good herbicidal activity | very good herbicidal activity |
| Cc1nc(N)nc(NC2CCN(c3cccc(C(F)(F)F)c3)C2=O)n1 (centres unmarked) [Example A3] | very good herbicidal activity | very good herbicidal activity |
| Cc1cccc(N2CCC(Nc3nc(C)nc(N)n3)C2=O)c1 (centres unmarked) [Example A4] | very good herbicidal activity | very good herbicidal activity |
| Cc1cc(C)cc(N2CCC(Nc3nc(C)nc(N)n3)C2=O)c1 (centres unmarked) [Example A5] | very good herbicidal activity | very good herbicidal activity |
| Cc1nc(N)nc(NC2CCN(c3ccc(F)c(C)c3)C2=O)n1 (centres unmarked) [Example A6] | very good herbicidal activity | very good herbicidal activity |
| COc1cccc(N2CCC(Nc3nc(C)nc(N)n3)C2=O)c1 (centres unmarked) [Example A7] | very good herbicidal activity | very good herbicidal activity |
| Cc1nc(N)nc(NC2CCN(c3cccc(OC(F)(F)F)c3)C2=O)n1 (centres unmarked) [Example A8] | very good herbicidal activity | very good herbicidal activity |
| Cc1nc(N)nc(NC2CCN(c3cccc(Cl)c3)C2=O)n1 (centres unmarked) [Example A9] | very good herbicidal activity | very good herbicidal activity |
| CC(F)c1nc(N)nc(NC2CCN(c3cccc(F)c3)C2=O)n1 (centres unmarked) [Example A10] | very good herbicidal activity | very good herbicidal activity |
| CC(F)c1nc(N)nc(NC2CCN(c3ccccc3)C2=O)n1 (centres unmarked) [Example A11] | very good herbicidal activity | very good herbicidal activity |
| CC(F)c1nc(N)nc(NC2CCN(c3cccc(C(F)(F)F)c3)C2=O)n1 (centres unmarked) [Example A12] | very good herbicidal activity | very good herbicidal activity |
| Cc1cccc(N2CCC(Nc3nc(N)nc(C(C)F)n3)C2=O)c1 (centres unmarked) [Example A13] | very good herbicidal activity | very good herbicidal activity |
| Cc1cc(C)cc(N2CCC(Nc3nc(N)nc(C(C)F)n3)C2=O)c1 (centres unmarked) [Example A14] | very good herbicidal activity | very good herbicidal activity |
| Cc1cc(N2CCC(Nc3nc(N)nc(C(C)F)n3)C2=O)ccc1F (centres unmarked) [Example A15] | very good herbicidal activity | very good herbicidal activity |
| COc1cccc(N2CCC(Nc3nc(N)nc(C(C)F)n3)C2=O)c1 (centres unmarked) [Example A16] | very good herbicidal activity | very good herbicidal activity |
| CC(F)c1nc(N)nc(NC2CCN(c3cccc(OC(F)(F)F)c3)C2=O)n1 (centres unmarked) [Example A17] | very good herbicidal activity | very good herbicidal activity |
| CC(F)c1nc(N)nc(NC2CCN(c3cccc(Cl)c3)C2=O)n1 (centres unmarked) [Example A18] | very good herbicidal activity | very good herbicidal activity |
| CC(C)c1nc(N)nc(NC2CCN(c3cccc(F)c3)C2=O)n1 (centres unmarked) [Example A19] | very good herbicidal activity | very good herbicidal activity |
| CC(C)c1nc(N)nc(NC2CCN(c3cccc(C(F)(F)F)c3)C2=O)n1 (centres unmarked) [Example A21] | very good herbicidal activity | very good herbicidal activity |
| Cc1cccc(N2CCC(Nc3nc(N)nc(C(C)C)n3)C2=O)c1 (centres unmarked) [Example A22] | very good herbicidal activity | very good herbicidal activity |
| Cc1cc(C)cc(N2CCC(Nc3nc(N)nc(C(C)C)n3)C2=O)c1 (centres unmarked) [Example A23] | very good herbicidal activity | very good herbicidal activity |

| SMILES | herbicidal activity pre-emergence [1] | herbicidal activity post-emergence [2] |
| --- | --- | --- |
| Cc1cc(N2CCC(Nc3nc(N)nc(C(C)C)n3)C2=O)ccc1F (centres unmarked) [Example A24] | very good herbicidal activity | very good herbicidal activity |
| COc1cccc(N2CCC(Nc3nc(N)nc(C(C)C)n3)C2=O)c1 (centres unmarked) [Example A25] | very good herbicidal activity | very good herbicidal activity |
| CC(C)c1nc(N)nc(NC2CCN(c3cccc(OC(F)(F)F)c3)C2=O)n1 (centres unmarked) [Example A26] | very good herbicidal activity | very good herbicidal activity |
| CC(C)c1nc(N)nc(NC2CCN(c3cccc(Cl)c3)C2=O)n1 (centres unmarked) [Example A27] | very good herbicidal activity | very good herbicidal activity |
| CC(C)(F)c1nc(N)nc(NC2CCN(c3cccc(F)c3)C2=O)n1 (centres unmarked) [Example A28] | very good herbicidal activity | very good herbicidal activity |
| Cc1cc(N2CCC(Nc3nc(N)nc(C(C)(C)F)n3)C2=O)ccc1F (centres unmarked) [Example A29] | very good herbicidal activity | very good herbicidal activity |
| COc1cccc(N2CCC(Nc3nc(N)nc(C(C)(C)F)n3)C2=O)c1 (centres unmarked) [Example A30] | very good herbicidal activity | very good herbicidal activity |
| CC(C)(F)c1nc(N)nc(NC2CCN(c3cccc(OC(F)(F)F)c3)C2=O)n1 (centres unmarked) [Example A31] | very good herbicidal activity | very good herbicidal activity |
| CC(C)(F)c1nc(N)nc(NC2CCN(c3cccc(C(F)(F)F)c3)C2=O)n1 (centres unmarked) [Example A32] | very good herbicidal activity | very good herbicidal activity |
| Cc1cccc(N2CCC(Nc3nc(N)nc(C(C)(C)F)n3)C2=O)c1 (centres unmarked) [Example A33] | very good herbicidal activity | very good herbicidal activity |
| Cc1cc(C)cc(N2CCC(Nc3nc(N)nc(C(C)(C)F)n3)C2=O)c1 (centres unmarked) [Example A34] | very good herbicidal activity | very good herbicidal activity |
| CC(C)(F)c1nc(N)nc(NC2CCN(c3ccccc3)C2=O)n1 (centres unmarked) [Example A35] | very good herbicidal activity | very good herbicidal activity |
| CC(C)(F)c1nc(N)nc(NC2CCN(c3cccc(Cl)c3)C2=O)n1 (centres unmarked) [Example A36] | very good herbicidal activity | very good herbicidal activity |
| CC(F)c1nc(N)nc(OC2CCN(c3cccc(C(F)(F)F)c3)C2=O)n1 (centres unmarked) [Example A37] | very good herbicidal activity | very good herbicidal activity |
| Cc1cccc(N2CCC(Oc3nc(N)nc(C(C)F)n3)C2=O)c1 (centres unmarked) [Example A38] | very good herbicidal activity | very good herbicidal activity |
| Cc1cc(C)cc(N2CCC(Oc3nc(N)nc(C(C)F)n3)C2=O)c1 (centres unmarked) [Example A39] | very good herbicidal activity | very good herbicidal activity |
| Cc1cc(N2CCC(Oc3nc(N)nc(C(C)F)n3)C2=O)ccc1F (centres unmarked) [Example A40] | very good herbicidal activity | very good herbicidal activity |
| COc1cccc(N2CCC(Oc3nc(N)nc(C(C)F)n3)C2=O)c1 (centres unmarked) [Example A41] | very good herbicidal activity | very good herbicidal activity |
| CC(F)c1nc(N)nc(OC2CCN(c3cccc(OC(F)(F)F)c3)C2=O)n1 (centres unmarked) [Example A42] | very good herbicidal activity | very good herbicidal activity |
| CC(F)c1nc(N)nc(OC2CCN(c3cccc(Cl)c3)C2=O)n1 (centres unmarked) [Example A43] | very good herbicidal activity | very good herbicidal activity |
| CC(F)c1nc(N)nc(OC2CCN(c3cccc(F)c3)C2=O)n1 (centres unmarked) [Example A44] | very good herbicidal activity | very good herbicidal activity |
